Activity calls are given as the source filed them. The rule behind the calls is not given here.
What was measured:
Type in all cases: cell-based
[1] = target: T1, Transient receptor potential cation channel subfamily V member 3 (Homo sapiens) (UniProt Q8NET8); experiment: Activation of TRPV3 in HEK cells assessed as increase in Ca2+ level from extracellular space at 10 uM; conditions: HEK293
T1 sequence (whole entry): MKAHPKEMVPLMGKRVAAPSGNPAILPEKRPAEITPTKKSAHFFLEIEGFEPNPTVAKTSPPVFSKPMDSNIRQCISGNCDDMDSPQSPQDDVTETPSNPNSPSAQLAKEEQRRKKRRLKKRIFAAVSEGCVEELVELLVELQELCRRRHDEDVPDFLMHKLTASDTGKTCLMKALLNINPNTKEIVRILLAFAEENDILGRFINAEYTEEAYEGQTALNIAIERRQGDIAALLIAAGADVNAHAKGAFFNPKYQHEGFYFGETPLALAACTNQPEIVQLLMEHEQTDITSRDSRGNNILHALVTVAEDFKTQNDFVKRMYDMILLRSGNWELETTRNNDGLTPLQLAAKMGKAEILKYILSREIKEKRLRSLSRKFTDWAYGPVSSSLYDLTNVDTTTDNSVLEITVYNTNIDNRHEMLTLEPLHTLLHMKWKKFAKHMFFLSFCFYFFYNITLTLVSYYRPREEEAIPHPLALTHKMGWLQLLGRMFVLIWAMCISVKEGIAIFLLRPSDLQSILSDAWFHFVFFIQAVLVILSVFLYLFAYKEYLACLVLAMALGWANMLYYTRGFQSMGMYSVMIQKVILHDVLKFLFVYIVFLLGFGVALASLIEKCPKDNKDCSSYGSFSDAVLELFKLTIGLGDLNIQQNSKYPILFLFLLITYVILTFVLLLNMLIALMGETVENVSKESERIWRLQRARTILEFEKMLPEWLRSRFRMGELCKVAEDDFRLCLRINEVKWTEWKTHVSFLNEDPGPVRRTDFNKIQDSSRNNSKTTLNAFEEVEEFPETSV

HEK293 = experiment: Activation of rat TRPV1 Cys616 mutant expressed in HEK cells assessed as increase in Ca2+ level from extracellular space at 10 uM
[2] = system: T2, Short transient receptor potential channel 5 (Homo sapiens), Q9UL62 [C553S]; experiment: Decrease in TRPC5 C553S mutant S-nitrosylation in HEK cells assessed as inhibition of incorporation of DTNB-2Bio at 30 uM relative to control; conditions: HEK293
T2 sequence (whole entry): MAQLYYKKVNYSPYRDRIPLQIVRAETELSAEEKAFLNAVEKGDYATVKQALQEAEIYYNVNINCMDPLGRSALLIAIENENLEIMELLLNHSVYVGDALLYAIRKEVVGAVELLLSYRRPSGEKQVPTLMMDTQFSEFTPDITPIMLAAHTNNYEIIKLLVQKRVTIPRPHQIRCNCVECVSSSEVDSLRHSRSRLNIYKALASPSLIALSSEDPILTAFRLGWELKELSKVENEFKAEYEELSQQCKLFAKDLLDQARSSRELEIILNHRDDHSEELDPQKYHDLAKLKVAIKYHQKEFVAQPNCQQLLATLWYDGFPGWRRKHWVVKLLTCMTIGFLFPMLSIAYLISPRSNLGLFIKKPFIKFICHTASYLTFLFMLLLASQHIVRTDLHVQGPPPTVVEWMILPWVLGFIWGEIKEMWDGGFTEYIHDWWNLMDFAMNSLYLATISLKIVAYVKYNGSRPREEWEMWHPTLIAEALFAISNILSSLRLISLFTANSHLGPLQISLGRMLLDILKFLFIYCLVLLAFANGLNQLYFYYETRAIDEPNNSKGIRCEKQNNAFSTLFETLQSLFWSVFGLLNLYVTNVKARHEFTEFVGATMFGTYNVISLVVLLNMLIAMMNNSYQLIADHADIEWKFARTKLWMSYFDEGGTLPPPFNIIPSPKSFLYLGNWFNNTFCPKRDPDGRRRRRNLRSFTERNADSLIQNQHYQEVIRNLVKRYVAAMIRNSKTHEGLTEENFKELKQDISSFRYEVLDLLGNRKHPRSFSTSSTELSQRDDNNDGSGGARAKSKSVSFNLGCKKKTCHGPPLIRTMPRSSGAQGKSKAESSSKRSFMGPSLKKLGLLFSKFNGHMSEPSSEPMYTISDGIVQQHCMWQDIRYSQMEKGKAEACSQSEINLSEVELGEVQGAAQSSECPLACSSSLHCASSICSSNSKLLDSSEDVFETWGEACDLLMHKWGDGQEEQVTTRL

[3] = target: T1, Transient receptor potential cation channel subfamily V member 3 (Homo sapiens); experiment: Activation of TRPV3 in HEK cells assessed as increase in Ca2+ level from extracellular space at 300 uM; conditions: HEK293
[4] = target: Transient receptor potential cation channel subfamily V member 4 (Homo sapiens) (UniProt Q9HBA0); experiment: Activation of TRPV4 in HEK cells assessed as increase in Ca2+ level from extracellular space at 300 uM; conditions: HEK293
Chain of Transient receptor potential cation channel subfamily V member 4 (Homo sapiens) (Q9HBA0 whole entry): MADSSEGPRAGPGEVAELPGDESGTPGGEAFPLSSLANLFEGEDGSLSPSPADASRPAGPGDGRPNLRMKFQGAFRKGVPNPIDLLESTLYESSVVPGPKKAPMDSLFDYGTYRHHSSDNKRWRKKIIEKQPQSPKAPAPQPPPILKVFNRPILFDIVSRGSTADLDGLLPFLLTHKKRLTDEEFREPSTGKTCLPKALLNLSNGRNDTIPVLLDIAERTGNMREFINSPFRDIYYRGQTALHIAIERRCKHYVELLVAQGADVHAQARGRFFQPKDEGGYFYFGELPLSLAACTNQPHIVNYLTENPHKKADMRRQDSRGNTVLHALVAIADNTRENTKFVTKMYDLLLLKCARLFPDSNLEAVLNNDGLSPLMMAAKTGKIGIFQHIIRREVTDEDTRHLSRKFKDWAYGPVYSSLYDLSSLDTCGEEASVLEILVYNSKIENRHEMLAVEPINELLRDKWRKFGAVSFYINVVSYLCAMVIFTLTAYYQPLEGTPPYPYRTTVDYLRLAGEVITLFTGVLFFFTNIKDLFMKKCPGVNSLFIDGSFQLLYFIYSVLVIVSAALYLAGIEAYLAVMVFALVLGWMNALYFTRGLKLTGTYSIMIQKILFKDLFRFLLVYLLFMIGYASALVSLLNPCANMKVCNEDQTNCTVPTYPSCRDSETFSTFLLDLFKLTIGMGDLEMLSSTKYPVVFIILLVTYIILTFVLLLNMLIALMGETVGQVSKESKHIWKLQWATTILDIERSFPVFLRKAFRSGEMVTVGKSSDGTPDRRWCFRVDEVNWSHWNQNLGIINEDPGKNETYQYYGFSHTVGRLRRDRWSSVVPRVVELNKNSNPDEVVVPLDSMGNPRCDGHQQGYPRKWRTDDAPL

[5] = target: Transient receptor potential cation channel subfamily V member 1 (Rattus norvegicus) (UniProt O35433); experiment: Activation of rat TRPV1 expressed in HEK cells assessed as increase in Ca2+ level from extracellular space at 300 uM; conditions: HEK293
Chain of Transient receptor potential cation channel subfamily V member 1 (Rattus norvegicus) (O35433 whole entry): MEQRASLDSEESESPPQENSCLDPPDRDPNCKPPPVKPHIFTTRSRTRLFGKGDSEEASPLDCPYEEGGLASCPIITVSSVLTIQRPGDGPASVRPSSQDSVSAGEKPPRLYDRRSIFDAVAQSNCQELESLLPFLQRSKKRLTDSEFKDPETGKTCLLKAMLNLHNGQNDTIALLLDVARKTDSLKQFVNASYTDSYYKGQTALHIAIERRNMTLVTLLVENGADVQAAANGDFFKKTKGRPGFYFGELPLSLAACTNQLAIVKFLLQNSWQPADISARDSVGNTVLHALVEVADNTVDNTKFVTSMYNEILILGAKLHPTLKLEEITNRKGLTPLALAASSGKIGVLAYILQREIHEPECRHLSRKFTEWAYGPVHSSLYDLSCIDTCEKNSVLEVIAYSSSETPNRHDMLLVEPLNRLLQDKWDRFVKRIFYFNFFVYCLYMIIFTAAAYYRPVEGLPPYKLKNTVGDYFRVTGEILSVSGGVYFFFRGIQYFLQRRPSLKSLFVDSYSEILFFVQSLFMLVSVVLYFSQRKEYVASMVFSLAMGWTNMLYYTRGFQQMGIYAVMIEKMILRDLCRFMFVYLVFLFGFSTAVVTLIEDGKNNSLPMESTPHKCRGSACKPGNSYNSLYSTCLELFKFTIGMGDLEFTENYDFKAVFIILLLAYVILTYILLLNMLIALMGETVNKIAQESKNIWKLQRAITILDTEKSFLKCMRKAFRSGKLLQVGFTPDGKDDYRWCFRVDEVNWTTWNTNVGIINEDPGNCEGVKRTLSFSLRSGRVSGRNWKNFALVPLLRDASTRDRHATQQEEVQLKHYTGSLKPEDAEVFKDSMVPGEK

Row | Activity [1] | Activity [2] | Activity [3] | Activity [4] | Activity [5] | Structure (SMILES) | Activity (HEK293)
1 | Active | Active |  |  |  | O=[N+]([O-])c1ccc(SSc2ccc([N+](=O)[O-])cn2)nc1 | inactive
2 |  |  | Active | Active | Active | CC(=O)N[C@@H](C(=O)O)C(C)(C)SN=O (racemic) | 
